ChEMBL document CHEMBL1201862, “PubChem BioAssay data set” (2004)
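Compound exposure: 48 hours, 5 concentrations, 96-well plates. GI50 = concentration required for 50% inhibition of growth.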 Activity calls are given as the source filed them. No stated cut-off is given here; in the data, active = GI50 up to about 1.1 µM and inactive = higher.

Tests used:
Experiment in all cases: NCI anticancer screen, dose series, 48 h
A498 = tested on: A498
MCF7 = tested on: MCF7
HCT-15 = tested on: HCT-15
OVCAR-4 = tested on: OVCAR-4
SK-MEL-2 = tested on: SK-MEL-2
PC-3 = tested on: PC-3
CCRF-CEM = tested on: CCRF-CEM
MDA-MB-435 = tested on: MDA-MB-435
OVCAR-8 = tested on: OVCAR-8
HOP-62 = tested on: HOP-62
SN12C = tested on: SN12C
SW-620 = tested on: SW-620
RXF 393 = tested on: RXF 393
MDA-MB-231 = tested on: MDA-MB-231
OVCAR-5 = tested on: OVCAR-5
K562 = tested on: K562
IGROV-1 = tested on: IGROV-1
SK-MEL-28 = tested on: SK-MEL-28
KM12 = tested on: KM12
HCC 2998 = tested on: HCC 2998

Measured: GI50

CC12CC(=O)C3C(CCC4=CC(=O)CCC43C)C1CC=C2CC(=O)O (configuration not stated)
> 100 µM: HCT-15
inactive: A498 > 100 µM | MCF7 > 100 µM | OVCAR-4 > 100 µM | SK-MEL-2 > 100 µM | PC-3 > 100 µM | CCRF-CEM > 100 µM | MDA-MB-435 > 100 µM | OVCAR-8 > 100 µM | HOP-62 > 100 µM | SN12C > 100 µM | SW-620 > 100 µM | RXF 393 > 100 µM | MDA-MB-231 > 100 µM | OVCAR-5 > 100 µM | K562 > 100 µM | IGROV-1 > 100 µM | SK-MEL-28 > 100 µM | KM12 > 100 µM

O=[N+]([O-])c1ccc(C2c3c(O)nc(S)nc3Oc3nc(S)nc(O)c32)cc1
> 100 µM: HCT-15
inactive: A498 > 100 µM | MCF7 > 100 µM | OVCAR-4 > 100 µM | SK-MEL-2 > 100 µM | PC-3 > 100 µM | CCRF-CEM > 100 µM | MDA-MB-435 > 100 µM | OVCAR-8 > 100 µM | HOP-62 > 100 µM | SN12C > 100 µM | SW-620 > 100 µM | RXF 393 > 100 µM | MDA-MB-231 > 100 µM | OVCAR-5 > 100 µM | K562 > 100 µM | IGROV-1 > 100 µM | SK-MEL-28 > 100 µM | KM12 > 100 µM

O=[N+]([O-])c1ccc2c(c1)C1=C(CO2)Cc2ccccc2O1
14.3 µM: HCT-15
inactive: A498 63.8 µM | OVCAR-4 36.9 µM | SK-MEL-2 37.9 µM | PC-3 19.1 µM | CCRF-CEM 23.6 µM | MDA-MB-435 25.6 µM | OVCAR-8 33.5 µM | HOP-62 64.6 µM | SN12C 25.9 µM | SW-620 21.3 µM | MDA-MB-231 27.4 µM | OVCAR-5 24.5 µM | K562 51.4 µM | HCC 2998 19.7 µM | IGROV-1 19.2 µM | KM12 20.1 µM

O=C1N/C(=N/N=C/c2ccccc2)N/C1=C\c1c[nH]c2ccccc12
inactive: A498 > 100 µM | MCF7 80.7 µM | OVCAR-4 > 100 µM | SK-MEL-2 > 100 µM | PC-3 22.6 µM | CCRF-CEM 11.4 µM | MDA-MB-435 > 100 µM | OVCAR-8 38.2 µM | HOP-62 61.4 µM | SN12C 29.2 µM | SW-620 64.4 µM | RXF 393 > 100 µM | MDA-MB-231 42.9 µM | OVCAR-5 > 100 µM | K562 47.1 µM | IGROV-1 > 100 µM | SK-MEL-28 > 100 µM | KM12 65 µM
> 100 µM: HCT-15

[O-][S+](Nc1ccccc1)c1ccc(Cl)cc1 (configuration not stated)
75.2 µM: HCT-15
inactive: MCF7 > 100 µM | OVCAR-4 > 100 µM | SK-MEL-2 > 100 µM | CCRF-CEM 89.9 µM | MDA-MB-435 31.4 µM | OVCAR-8 > 100 µM | HOP-62 > 100 µM | SN12C > 100 µM | SW-620 > 100 µM | MDA-MB-231 > 100 µM | OVCAR-5 > 100 µM | K562 > 100 µM | HCC 2998 69.7 µM | IGROV-1 24.7 µM | SK-MEL-28 > 100 µM | KM12 17.5 µM

CCCCC1c2c([nH]c3ccccc23)C2C(=O)N(c3ccc(OC)cc3)C(=O)C2C1CCC (configuration not stated)
inactive: A498 3.4 µM | OVCAR-4 4.82 µM | SK-MEL-2 2.39 µM | PC-3 2.6 µM | CCRF-CEM 3.66 µM | MDA-MB-435 2.24 µM | OVCAR-8 2.65 µM | HOP-62 3.69 µM | SN12C 2.18 µM | SW-620 3.95 µM | RXF 393 3.39 µM | MDA-MB-231 2.58 µM | OVCAR-5 > 10 µM | K562 3.29 µM | HCC 2998 3.47 µM | IGROV-1 4.56 µM | SK-MEL-28 5.4 µM | KM12 2.1 µM
3.6 µM: HCT-15

Cc1cc(C)c(C2CC(O)C(CO)O2)cc1C (configuration not stated)
inactive: OVCAR-4 > 100 µM | SK-MEL-2 > 100 µM | PC-3 > 100 µM | CCRF-CEM > 100 µM | MDA-MB-435 > 100 µM | OVCAR-8 > 100 µM | HOP-62 > 100 µM | SN12C > 100 µM | SW-620 > 100 µM | MDA-MB-231 > 100 µM | OVCAR-5 > 100 µM | K562 > 100 µM | HCC 2998 > 100 µM | IGROV-1 > 100 µM | SK-MEL-28 > 100 µM | KM12 > 100 µM
> 100 µM: HCT-15

CO[C@@]12C[C@@H](CNC(=O)c3cc(Br)c[nH]3)O[C@@H]1NC(=O)N2
inactive: A498 > 100 µM | MCF7 > 100 µM | OVCAR-4 > 100 µM | SK-MEL-2 > 100 µM | PC-3 > 100 µM | CCRF-CEM > 100 µM | MDA-MB-435 > 100 µM | OVCAR-8 > 100 µM | HOP-62 > 100 µM | SN12C > 100 µM | SW-620 > 100 µM | RXF 393 > 100 µM | MDA-MB-231 > 100 µM | OVCAR-5 > 100 µM | IGROV-1 > 100 µM | SK-MEL-28 > 100 µM | KM12 > 100 µM
> 100 µM: HCT-15

O=c1[nH]c(=O)n(COCc2ccccc2)c2ccccc12
14 µM: HCT-15
inactive: A498 > 100 µM | MCF7 38 µM | OVCAR-4 44.3 µM | SK-MEL-2 > 100 µM | PC-3 39.7 µM | CCRF-CEM 56.9 µM | MDA-MB-435 > 100 µM | OVCAR-8 40.9 µM | SN12C > 100 µM | SW-620 > 100 µM | RXF 393 19.1 µM | MDA-MB-231 49.2 µM | OVCAR-5 > 100 µM | K562 45.6 µM | IGROV-1 18.4 µM | SK-MEL-28 91.4 µM | KM12 59.8 µM

O=[N+]([O-])/C(C(Cl)=C(Cl)Cl)=C1\Nc2ccc([N+](=O)[O-])cc2N1
inactive: A498 > 100 µM | MCF7 > 100 µM | OVCAR-4 > 100 µM | SK-MEL-2 > 100 µM | PC-3 > 100 µM | CCRF-CEM 27.4 µM | MDA-MB-435 > 100 µM | HOP-62 > 100 µM | SN12C 55.7 µM | MDA-MB-231 45.2 µM | OVCAR-5 > 100 µM | K562 > 100 µM | SK-MEL-28 > 100 µM | KM12 > 100 µM
> 100 µM: HCT-15

N#CC1CNC(N)NC1N (configuration not stated)
active: CCRF-CEM < 0.01 µM
> 100 µM: HCT-15
inactive: A498 > 100 µM | MCF7 > 100 µM | OVCAR-4 > 100 µM | SK-MEL-2 > 100 µM | PC-3 > 100 µM | MDA-MB-435 > 100 µM | OVCAR-8 > 100 µM | HOP-62 > 100 µM | SN12C > 100 µM | SW-620 > 100 µM | RXF 393 > 100 µM | MDA-MB-231 > 100 µM | OVCAR-5 > 100 µM | K562 64.1 µM | IGROV-1 > 100 µM | SK-MEL-28 > 100 µM | KM12 > 100 µM
